Results reported in ChEMBL document CHEMBL4808226, “Optimization of the Urea Linker of Triazolopyridazine MMV665917 Results in a New Anticryptosporidial Lead with Improved Potency and Predicted hERG Safety Margin” (J Med Chem, 2021).
Converted amounts (≈) assume the structure as drawn. The source made the active and inactive calls. The rule behind the calls is not given here.

What was measured:
Cryptosporidium parvum [1] = experiment: Anti-cryptosporidial activity against Cryptosporidium parvum infected in HCT-8 cells pre-infected for 3 hrs followed by compound treatment and measured after 45 hrs by fluorescence microscopy analysis; format: functional, organism-based
[2] = Efflux ratio of apparent permeability across basolateral to apical side over apical to basolateral side in […] cells at 10 uM after 2 hrs; format: ADME, cell-based; conditions: mdckii-mdr1, 2 h, 10 µM
hERG (KCNH2) [3] = molecular target: T1, hERG (KCNH2) (Homo sapiens, UniProt Q12809); experiment: Inhibition of human ERG expressed in CHO cells at 10 uM by automated patch clamp electrophysiology assay relative to control; format: cell-based; conditions: CHO cells that express hERG
T1 sequence (Q12809 whole entry): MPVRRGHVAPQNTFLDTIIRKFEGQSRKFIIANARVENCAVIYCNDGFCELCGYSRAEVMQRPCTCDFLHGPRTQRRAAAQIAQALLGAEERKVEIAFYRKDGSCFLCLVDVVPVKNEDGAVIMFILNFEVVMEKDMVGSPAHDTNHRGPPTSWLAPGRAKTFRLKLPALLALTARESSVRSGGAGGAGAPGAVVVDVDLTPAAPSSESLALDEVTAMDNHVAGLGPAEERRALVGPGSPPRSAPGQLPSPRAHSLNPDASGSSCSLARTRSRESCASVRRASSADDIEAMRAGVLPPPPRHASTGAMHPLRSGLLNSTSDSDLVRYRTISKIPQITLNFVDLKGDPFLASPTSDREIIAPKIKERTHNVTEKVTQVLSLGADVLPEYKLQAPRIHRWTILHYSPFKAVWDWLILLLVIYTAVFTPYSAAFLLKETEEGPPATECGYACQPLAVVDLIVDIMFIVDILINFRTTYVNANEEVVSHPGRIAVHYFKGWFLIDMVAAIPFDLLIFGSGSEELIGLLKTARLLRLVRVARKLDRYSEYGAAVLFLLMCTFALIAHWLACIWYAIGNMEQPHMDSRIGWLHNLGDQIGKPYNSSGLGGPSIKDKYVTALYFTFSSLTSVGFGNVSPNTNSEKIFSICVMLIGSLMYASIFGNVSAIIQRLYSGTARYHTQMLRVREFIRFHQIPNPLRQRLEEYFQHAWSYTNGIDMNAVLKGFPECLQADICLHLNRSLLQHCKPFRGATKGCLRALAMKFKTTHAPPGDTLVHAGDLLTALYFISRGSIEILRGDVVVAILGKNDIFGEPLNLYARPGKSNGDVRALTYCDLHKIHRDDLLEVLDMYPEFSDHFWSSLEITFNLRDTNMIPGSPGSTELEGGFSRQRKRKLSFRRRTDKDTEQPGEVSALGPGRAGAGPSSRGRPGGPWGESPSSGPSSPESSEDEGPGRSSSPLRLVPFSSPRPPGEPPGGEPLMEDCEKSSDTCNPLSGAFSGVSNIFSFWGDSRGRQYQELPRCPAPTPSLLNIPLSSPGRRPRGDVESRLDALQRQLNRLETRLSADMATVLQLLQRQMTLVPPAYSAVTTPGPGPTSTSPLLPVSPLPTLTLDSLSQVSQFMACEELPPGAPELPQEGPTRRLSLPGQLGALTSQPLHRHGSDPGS

hERG (KCNH2) [4] = molecular target: T1, hERG (KCNH2); experiment: Inhibition of human ERG expressed in CHO cells at 1 uM by automated patch clamp electrophysiology assay relative to control; format: cell-based; conditions: CHO cells that express hERG
hERG (KCNH2) [5] = molecular target: T1, hERG (KCNH2); experiment: Inhibition of human ERG expressed in CHO cells at 100 uM by automated patch clamp electrophysiology assay relative to control; format: cell-based; conditions: CHO cells that express hERG
hERG (KCNH2) [6] = molecular target: T1, hERG (KCNH2); experiment: Displacement of [3H]-dofetilide from human ERG at 10 uM relative to control; conditions: probe [3H]-dofetilide
HCT-8 = experiment: Cytotoxicity against human HCT8 cells assessed as reduction in cell viability after 48 hrs by CellTiter aqueous assay; format: cell-based; conditions: hct-8, 48 h
Cryptosporidium hominis = experiment: Anti-cryptosporidial activity against Cryptosporidium hominis infected in HCT-8 cells pre-infected for 3 hrs followed by compound treatment and measured after 45 hrs by fluorescence microscopy analysis; format: functional, organism-based
[7] = Kinetic aqueous solubility of the compound in pH 7.4; format: physicochemical; conditions: buffer, read-out: Kinetic_solubility
[8] = Metabolic stability in mouse liver microsomes assessed as half life at 2 uM measured up to 30 mins in presence of NADPH by LC-MS/MS analysis; format: ADME, Microsome; conditions: 0.5 h
[9] = Metabolic stability in human liver microsomes assessed as half life at 2 uM measured up to 30 mins in presence of NADPH by LC-MS/MS analysis; format: ADME, Microsome; conditions: microsomes, 0.5 h, 2 µM
Cryptosporidium parvum [10] = experiment: Anti-cryptosporidial activity against Cryptosporidium parvum infected in HCT-8 cells assessed as rate of parasite elimination at above EC90 concentration pre-infected for 24 hrs followed by compound treatment; format: functional, organism-based
Cryptosporidium parvum [11] = experiment: Anti-cryptosporidial activity against Cryptosporidium parvum infected in HCT-8 cells assessed as rate of parasite elimination at 6 times of EC90 concentration pre-infected for 24 hrs followed by compound treatment measured after 98 hrs; format: functional
[12] = molecular target: Voltage-gated inwardly rectifying potassium channel KCNH2 (Homo sapiens, UniProt Q12809); experiment: Antagonist activity at human ERG
Sequence of Voltage-gated inwardly rectifying potassium channel KCNH2 (Q12809 whole entry): as above

[13] = Cmax in CD1 mouse plasma at 10 mg/kg, po measured upto 24 hrs by LC-MS/MS anlaysis; format: ADME, organism-based; parameters: route oral, dose 10 mg/kg, time <=24; conditions: in vivo
[14] = Cmax in CD1 mouse plasma at 1 mg/kg, iv measured upto 6 hrs by LC-MS/MS anlaysis; format: ADME, organism-based; parameters: route intravenous, dose 1 mg/kg, time <=6; conditions: in vivo
[15] = AUC in CD1 mouse jejunum at 10 mg/kg, po measured upto 24 hrs by LC-MS/MS anlaysis; format: ADME, organism-based; parameters: route oral, dose 10 mg/kg, time <=24; conditions: in vivo
[16] = Volume of distribution in CD1 mouse jejunum at 1 mg/kg, iv measured upto 6 hrs by LC-MS/MS anlaysis; format: ADME, organism-based; conditions: in vivo
[17] = Oral bioavailability in CD1 mouse jejunum at 10 mg/kg measured upto 24 hrs by LC-MS/MS anlaysis; format: ADME, organism-based; conditions: in vivo
hERG (KCNH2) [18] = molecular target: T1, hERG (KCNH2); experiment: Antagonist activity at human ERG relative to control
[19] = Protein binding in mouse plasma at 10 uM after 6 hrs by LC-MS/MS based equilibrium dialysis method; format: ADME, cell-free
Cryptosporidium parvum [20] = experiment: Anti-cryptosporidial activity against Cryptosporidium parvum infected in NSG mouse assessed as reduction in parasite infection at 50 mg/kg, po administered twice daily for 11 days by qPCR analysis; format: functional; parameters: scale not given: the % may be the effect or the level left; conditions: time 11 day
[21] = Protein binding in human plasma at 10 uM after 6 hrs by LC-MS/MS based equilibrium dialysis method; format: ADME, cell-free
[22] = Half life in CD1 mouse plasma at 1 mg/kg, iv measured upto 6 hrs by LC-MS/MS anlaysis; format: ADME, organism-based; conditions: in vivo
[23] = AUC in CD1 mouse jejunum at 1 mg/kg, iv measured upto 6 hrs by LC-MS/MS anlaysis; format: ADME, organism-based; parameters: route intravenous, dose 1 mg/kg, time <=6; conditions: in vivo
[24] = AUC in CD1 mouse plasma at 1 mg/kg, iv measured upto 6 hrs by LC-MS/MS anlaysis; format: ADME, organism-based; parameters: route intravenous, dose 1 mg/kg, time <=6; conditions: in vivo
[25] = Volume of distribution in CD1 mouse plasma at 1 mg/kg, iv measured upto 6 hrs by LC-MS/MS anlaysis; format: ADME, organism-based; conditions: in vivo
[26] = Cmax in CD1 mouse jejunum at 10 mg/kg, po measured upto 24 hrs by LC-MS/MS anlaysis; format: ADME, organism-based; parameters: route oral, dose 10 mg/kg, time <=24; conditions: in vivo
CYP2C9 = CYP2C9 (Homo sapiens, UniProt P11712); experiment: Inhibition of CYP2C9 (unknown origin) at 10 uM relative to control; format: ADME
Sequence of CYP2C9 (P11712 whole entry): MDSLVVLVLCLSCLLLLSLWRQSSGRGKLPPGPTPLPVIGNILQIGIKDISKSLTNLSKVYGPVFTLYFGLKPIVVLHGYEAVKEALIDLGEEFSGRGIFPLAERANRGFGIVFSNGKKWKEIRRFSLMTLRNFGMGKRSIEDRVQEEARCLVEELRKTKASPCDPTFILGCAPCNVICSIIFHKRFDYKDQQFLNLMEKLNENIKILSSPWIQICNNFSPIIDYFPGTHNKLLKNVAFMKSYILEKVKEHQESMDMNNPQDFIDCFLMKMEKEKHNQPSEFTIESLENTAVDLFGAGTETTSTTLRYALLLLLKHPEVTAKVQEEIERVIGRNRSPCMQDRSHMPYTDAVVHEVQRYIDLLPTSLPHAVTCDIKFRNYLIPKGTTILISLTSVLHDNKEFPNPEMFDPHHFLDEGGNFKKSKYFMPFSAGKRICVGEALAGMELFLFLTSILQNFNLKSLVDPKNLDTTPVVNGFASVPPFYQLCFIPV

[27] = AUC in CD1 mouse plasma at 10 mg/kg, po measured upto 24 hrs by LC-MS/MS anlaysis; format: ADME, organism-based; parameters: route oral, dose 10 mg/kg, time <=24; conditions: in vivo
Cryptosporidium parvum [28] = experiment: Anti-cryptosporidial activity against Cryptosporidium parvum infected in NSG mouse assessed as reduction in parasite infection at 50 mg/kg, po administered twice daily for 21 days by qPCR analysis; format: functional, organism-based; conditions: time 21.0 day
Cryptosporidium parvum [29] = experiment: Anti-cryptosporidial activity against Cryptosporidium parvum infected in HCT-8 cells assessed as rate of parasite elimination at 6 times of EC90 concentration pre-infected for 24 hrs followed by compound treatment; format: functional, organism-based
CYP2C19 = CYP2C19 (Homo sapiens, UniProt P33261); experiment: Inhibition of CYP2C19 (unknown origin) at 10 uM relative to control; format: ADME
Sequence of CYP2C19 (P33261 whole entry): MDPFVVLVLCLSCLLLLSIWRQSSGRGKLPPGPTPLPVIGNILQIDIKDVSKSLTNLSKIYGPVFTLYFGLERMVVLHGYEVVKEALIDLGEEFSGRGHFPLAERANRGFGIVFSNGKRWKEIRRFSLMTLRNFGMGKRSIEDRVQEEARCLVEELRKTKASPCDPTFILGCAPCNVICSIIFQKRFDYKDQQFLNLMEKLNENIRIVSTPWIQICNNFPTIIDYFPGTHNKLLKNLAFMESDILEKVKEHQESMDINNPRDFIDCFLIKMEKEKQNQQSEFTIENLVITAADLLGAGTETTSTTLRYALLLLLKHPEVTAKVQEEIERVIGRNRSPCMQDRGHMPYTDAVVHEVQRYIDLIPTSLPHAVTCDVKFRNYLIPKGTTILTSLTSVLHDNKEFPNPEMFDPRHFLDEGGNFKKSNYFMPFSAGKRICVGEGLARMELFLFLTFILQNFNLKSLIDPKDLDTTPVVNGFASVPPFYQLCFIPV

[30] = Cmax in CD1 mouse jejunum at 1 mg/kg, iv measured upto 6 hrs by LC-MS/MS anlaysis; format: ADME, organism-based; parameters: route intravenous, dose 1 mg/kg, time <=6; conditions: in vivo
[31] = Half life in CD1 mouse jejunum at 1 mg/kg, iv measured upto 6 hrs by LC-MS/MS anlaysis; format: ADME, organism-based; conditions: in vivo

Compound: O=C(N1CCN(c2ccc3nncn3n2)CC1)C1(c2ccc(Cl)c(Cl)c2)CC1
- EC50 (Cryptosporidium parvum [1]): 8.5 µM

Compound: CC1CN(c2ccc3nncn3n2)CCN1C(=O)Nc1ccc(Cl)c(Cl)c1 (stereo not drawn)
- EC50 (Cryptosporidium parvum [1]): 32 µM

Compound: O=C(Cc1cccc2ccccc12)N1CCN(c2ccc3nncn3n2)CC1
- EC50 (Cryptosporidium parvum [1]): 17.1 µM

Compound: O=C(Nc1ccc(Cl)cc1)N1CCN(c2ccc3nncn3n2)CC1
- Ratio [2]: 8.9
- inhibition at 10 µM (hERG (KCNH2) [3]): 48%
- inhibition at 1 µM (hERG (KCNH2) [4]): 12%
- inhibition at 100 µM (hERG (KCNH2) [5]): 88%
- inhibition at 10 µM (hERG (KCNH2) [6]): 8%
- EC50 (Cryptosporidium parvum [1]): 2.1 µM
- CC50 (HCT-8): > 100 µM
- EC50 (Cryptosporidium hominis): 6 µM
- solubility kinetic [7]: 200 µM (≈ 71.6 µg/mL)
- t1/2 [8]: > 30 min
- t1/2 [9]: > 30 min

Compound: O=C(N1CCN(c2ccc3nncn3n2)CC1)C(F)(F)c1ccc(Cl)c(Cl)c1
- EC50 (Cryptosporidium parvum [1]): 2.3 µM

Compound: O=C(Cc1cccc(Cl)c1)N1CCN(c2ccc3nncn3n2)CC1
- EC50 (Cryptosporidium parvum [1]): 3.5 µM

Compound: O=C(Cc1ccc(Cl)c(Cl)c1)N1CCC(c2ccc3nncn3n2)CC1
- Ratio [2]: 9.8
- EC50 (Cryptosporidium parvum [1]): 11 µM
- t1/2 [9]: 7.8 min

Compound: CC(=O)Oc1ccccc1C(=O)Nc1ncc([N+](=O)[O-])s1 [NITAZOXANIDE]
- EC50 (Cryptosporidium parvum [1]): 2 µM
- Activity (Cryptosporidium parvum [10]): Active

Compound: O=C(Cc1ccc(Cl)c(Cl)c1)N1CCN(c2ccc3nncn3n2)CC1
- Activity (Cryptosporidium parvum [11]): 99.9%
- EC50 [12]: 7.7 µM
- Cmax [13]: 1500 ng/mL
- Cmax [14]: 17000 ng/mL
- AUC [15]: 240 µg·h/mL
- inhibition at 10 µM (hERG (KCNH2) [3]): 67%
- Vd [16]: 130 mL/kg
- inhibition at 1 µM (hERG (KCNH2) [4]): 19%
- inhibition at 100 µM (hERG (KCNH2) [5]): 94%
- F [17]: 1%
- Emax (hERG (KCNH2) [18]): 79%
- PPB [19]: 92.4%
- Activity (Cryptosporidium parvum [20]): >99%
- PPB [21]: 97.8%
- t1/2 [22]: 2.2 h
- AUC [23]: 55000 ng·h/mL
- AUC [24]: 50000 ng·h/mL
- Vd [25]: 62 mL/kg
- inhibition at 10 µM (hERG (KCNH2) [6]): 11%
- Cmax [26]: 36000 ng/mL
- inhibition at 10 µM (CYP2C9): 31%
- AUC [27]: 5200 ng·h/mL
- CC50 (HCT-8): > 100 µM
- Activity (Cryptosporidium parvum [28]): Active
- Activity (Cryptosporidium parvum [29]): Active
- inhibition at 10 µM (CYP2C19): 44%
- solubility kinetic [7]: 18 µM (≈ 7.04 µg/mL)
- t1/2 [8]: > 30 min
- Cmax [30]: 15000 ng/mL
- t1/2 [9]: > 30 min
- t1/2 [31]: 5.4 h

Compound: O=C(Cc1ccc(Cl)c(Cl)c1)N1CCC(Nc2ccc3nncn3n2)CC1
- EC50 (Cryptosporidium parvum [1]): > 25 µM

Compound: O=C(Nc1ccc(Cl)c(Cl)c1)N1CCC(c2ccc3nncn3n2)CC1
- Ratio [2]: 6.6
- EC50 (Cryptosporidium parvum [1]): 7 µM
- t1/2 [9]: > 30 min

Compound: N#Cc1ccc(CC(=O)N2CCN(c3ccc4nncn4n3)CC2)cc1
- EC50 (Cryptosporidium parvum [1]): 11 µM

Compound: O=C(Nc1ccc(Cl)c(Cl)c1)N1CCN(c2ccc3nncn3n2)CC1
- Ratio [2]: 12
- inhibition at 10 µM (hERG (KCNH2) [3]): 87%
- inhibition at 1 µM (hERG (KCNH2) [4]): 41%
- inhibition at 100 µM (hERG (KCNH2) [5]): 94%
- inhibition at 10 µM (hERG (KCNH2) [6]): 56%
- EC50 (Cryptosporidium parvum [1]): 0.55 µM
- CC50 (HCT-8): > 100 µM
- Activity (Cryptosporidium parvum [29]): Active
- EC50 (Cryptosporidium hominis): 0.56 µM
- solubility kinetic [7]: 1.8 µM (≈ 0.706 µg/mL)
- t1/2 [8]: > 30 min
- t1/2 [9]: > 30 min

Compound: O=C(Cc1ccccc1)N1CCN(c2ccc3nncn3n2)CC1
- inhibition at 10 µM (hERG (KCNH2) [6]): 4%
- EC50 (Cryptosporidium parvum [1]): 22 µM

Compound: O=C(Cc1ccc(Cl)c(Cl)c1)N1CC=C(c2ccc3nncn3n2)CC1
- inhibition at 10 µM (hERG (KCNH2) [6]): 9%
- EC50 (Cryptosporidium parvum [1]): 16 µM
